Data: US12060347B2 (BRISTOL-MYERS SQUIBB COMPANY, priority 2016, dated 2024)
pIC50: −log10 of the molar value.

target: T1, human PAR4 (Homo sapiens, UniProt Q96RI0); assay: PAR4 FLIPR assay: antagonism of agonist-peptide-induced calcium mobilization in PAR4-expressing HEK293 cells; assay type: cell-based; details: H-Ala-Phe(4-F)-[…]NH2-induced intracellular calcium mobilization, 11-point curves
T1 construct: expressed in transfected cells; host or cells: HEK293 PAR4 Clone 1.2A (BMS Arctic ID 383940)
T1 sequence (Q96RI0 18-385): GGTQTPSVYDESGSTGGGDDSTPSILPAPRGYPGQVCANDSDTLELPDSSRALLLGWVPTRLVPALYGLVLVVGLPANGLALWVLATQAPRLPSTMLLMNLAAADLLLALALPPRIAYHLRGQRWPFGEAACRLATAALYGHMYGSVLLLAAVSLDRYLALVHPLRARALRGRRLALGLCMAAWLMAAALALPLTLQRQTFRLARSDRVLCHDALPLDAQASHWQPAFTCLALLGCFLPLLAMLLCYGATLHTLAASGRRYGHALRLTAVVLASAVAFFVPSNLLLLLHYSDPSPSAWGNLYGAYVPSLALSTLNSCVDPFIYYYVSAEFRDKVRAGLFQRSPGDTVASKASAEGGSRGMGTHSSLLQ

| pIC50 | SMILES |
| --- | --- |
| 8.89 | COCc1cnc2c(-c3nc4ccc(OC)cc4s3)cc(Cl)cc2n1 [Example 201, 2-(7-chloro-2-(methoxymethyl)quinoxalin-5-yl)-6-methoxybenzo[d]thiazole] |
| 5.70 | COc1cnc2c(-c3nc4c(Cl)cncc4s3)cc(C)cc2n1 [Example 151, 7-chloro-2-(2-methoxy-7-methylquinoxalin-5-yl)thiazolo[5,4-c]pyridine] |
| 8.96 | COc1cnc2c(-c3nc4cc(F)c(O[C@@H](C)[C@@H](C)OC(=O)Nc5cnc(C)nc5)cc4s3)cc(OC)cc2c1 [Example 657, (2R,3S)-3-((2-(3,6-dimethoxyquinolin-8-yl)-5-fluorobenzo[d]thiazol-6-yl)oxy)butan-2-yl (2-methylpyrimidin-5-yl)carbamate] |
| 8.96 | COc1cnc2c(-c3nc4c(C)cc(OC[C@@H](C)OC(=O)Nc5cncc(C#N)c5)nc4s3)cc(C)cc2n1 [Example 735, (R)-1-((2-(2-methoxy-7-methylquinoxalin-5-yl)-7-methylthiazolo[5,4-b]pyridin-5-yl)oxy) propan-2-yl (5-cyanopyridin-3-yl)carbamate] |
| 8.62 | COc1cnc2c(-c3nc4cc(F)c(O[C@@H](C)[C@@H](C)OC(=O)Nc5cnc(OC[C@H](C)O)nc5)nc4s3)cc(C)cc2n1 [Example 728, (2R,3S)-3-((6-fluoro-2-(2-methoxy-7-methylquinoxalin-5-yl)thiazolo[5,4-b]pyridin-5-yl)oxy)butan-2-yl (2-((S)-2-hydroxypropoxy)pyrimidin-5-yl)carbamate] |
| 6.62 | CCc1cnc2c(-c3nc4c(C)cc(OCCNS(=O)(=O)c5ccc(F)cc5)cc4s3)cc(C)cc2n1 [Example 31, N-(2-((2-(2-ethyl-7-methylquinoxalin-5-yl)-4-methylbenzo[d]thiazol-6-yl)oxy)ethyl)-4-fluorobenzenesulfonamide] |
| 8.01 | Cc1cc(-c2cc3cc(OCC(=O)OC(C)(C)C)ccc3o2)c2ncc(OC(F)F)nc2c1 [Example 49, tert-butyl 2-(2-(2-(difluoromethoxy)-7-methylquinoxalin-5-yl)benzofuran-5-yloxy) acetate] |
| 6.34 | COc1ccc2c(-c3cc4ccccc4o3)nc(C)cc2n1 [Example 130, 5-(benzofuran-2-yl)-2-methoxy-7-methyl-1,6-naphthyridine] |
| 8.28 | COc1cc(C(O)c2ccccc2C(C)C)c2nc(-c3cc(C)cc4nc(OC)cnc34)sc2c1 (stereo not shown) [Example 643, (2-isopropylphenyl)(6-methoxy-2-(2-methoxy-7-methylquinoxalin-5-yl)benzo[d]thiazol-4-yl)methanol] |
| 6.85 | CCOCc1cnc2c(-c3nc4c(C)cc(OC)cc4s3)cc(C)cc2n1 [Example 189, 2-(2-(ethoxymethyl)-7-methylquinoxalin-5-yl)-6-methoxy-4-methylbenzo[d]thiazole] |
| 7.89 | Cc1cc(-c2nc3c(s2)CCCC3)c2ncc(OC(F)F)nc2c1 [Example 178, 2-(2-(difluoromethoxy)-7-methylquinoxalin-5-yl)-4,5,6,7-tetrahydrobenzo[d]thiazole] |
| 8.17 | Cc1cc(-c2nc3cccc(NC(=O)OC(C)(C)C)c3s2)c2ncc(OC(F)F)nc2c1 [Example 14, tert-butyl (2-(2-(difluoromethoxy)-7-methylquinoxalin-5-yl)benzo[d]thiazol-7-yl) carbamate] |
| 7.70 | Cc1cc(-c2nc3cc(F)c(O[C@@H](C)[C@@H](C)OC(=O)Nc4cnc(C)nc4)cc3s2)c2ncc(N(C)C)nc2c1 [Example 522, (2R,3S)-3-((2-(2-(dimethylamino)-7-methylquinoxalin-5-yl)-5-fluorobenzo[d]thiazol-6-yl)oxy)butan-2-yl (2-methylpyrimidin-5-yl)carbamate] |
| 8.49 | COC(=O)c1ncc(NC(=O)O[C@H](C)[C@H](C)Oc2nc3sc(-c4cc(C)cc5nc(OC)cnc45)nc3cc2F)cn1 [Example 712, methyl 5-(((((2R,3S)-3-((6-fluoro-2-(2-methoxy-7-methylquinoxalin-5-yl)thiazolo[5,4-b]pyridin-5-yl)oxy)butan-2-yl)oxy)carbonyl)amino)pyrimidine-2-carboxylate] |
| 9.05 | COc1cnc2c(-c3nc4cc(F)c(OC[C@@H](C)OC(=O)Nc5cncc(F)c5)nc4s3)cc(C)cc2n1 [Example 682, (R)-1-((6-fluoro-2-(2-methoxy-7-methylquinoxalin-5-yl)thiazolo[5,4-b]pyridin-5-yl)oxy) propan-2-yl (5-fluoropyridin-3-yl)carbamate] |
| 7.14 | COc1cnc2c(-c3nc4c(Cl)c(F)c(OC[C@@H](C)OC(=O)Nc5cnccc5C)cc4s3)cc(C)cc2n1 [Example 376, (R)-1-((4-chloro-5-fluoro-2-(2-methoxy-7-methylquinoxalin-5-yl)benzo[d]thiazol-6-yl)oxy)propan-2-yl (4-methylpyridin-3-yl) carbamate] |

| pIC50 | SMILES |
| --- | --- |
| 9.15 | COCc1cnc2c(-c3nc4c(C(O)C5CC5)cc(OC)cc4s3)cc(C)cc2n1 (stereo not shown) [Example 158, Cyclopropyl(6-methoxy-2-(2-(methoxymethyl)-7-methylquinoxalin-5-yl)benzo[d]thiazol-4-yl)methanol] |
| 9.05 | COc1cnc2c(-c3nc4cc(F)c(O[C@@H](C)[C@@H](C)OC(=O)Nc5cnc(OC)nc5)cc4s3)cc(C)cc2n1 [Example 407, (2R,3S)-3-((5-fluoro-2-(2-methoxy-7-methylquinoxalin-5-yl)benzo[d]thiazol-6-yl)oxy)butan-2-yl (2-methoxypyrimidin-5-yl)carbamate] |
| 7.54 | COc1cnc2c(-c3nc4c(s3)CCCCC4)cc(C)cc2n1 [Example 137, 2-(2-methoxy-7-methylquinoxalin-5-yl)-5,6,7,8-tetrahydro-4H-cyclohepta[d]thiazole] |
| 8.28 | COc1cnc2c(-c3nc4cc(F)c(O[C@@H](C)[C@@H](C)OC(=O)Nc5ccnc(CCO)c5)cc4s3)cc(C)cc2n1 [Example 547, (2R,3S)-3-((5-fluoro-2-(2-methoxy-7-methylquinoxalin-5-yl)benzo[d]thiazol-6-yl)oxy)butan-2-yl (2-(2-hydroxyethyl)pyridin-4-yl)carbamate] |
| 8.31 | COc1cnc2c(-c3nc4cc(F)c(O[C@@H](C)[C@@H](C)OC(=O)Nc5cnc(C)nc5)cc4s3)cc(Cl)cc2c1 [Example 645, (2R,3S)-3-((2-(6-chloro-3-methoxyquinolin-8-yl)-5-fluorobenzo[d]thiazol-6-yl)oxy)butan-2-yl (2-methylpyrimidin-5-yl)carbamate] |
| 8.66 | COc1cnc2c(-c3nc4cc(F)c(O[C@@H](C)[C@@H](C)OC(=O)Nc5cnc(OC)c(C)c5)cc4s3)cc(C)cc2n1 [Example 422, (2R,3S)-3-((5-fluoro-2-(2-methoxy-7-methylquinoxalin-5-yl)benzo[d]thiazol-6-yl)oxy)butan-2-yl (6-methoxy-5-methylpyridin-3-yl)carbamate] |
| 8.12 | COc1cnc2c(-c3nc4c(Cl)c(F)c(OC[C@@H](C)OC(=O)Nc5ccnc(C(N)=O)c5)cc4s3)cc(C)cc2n1 [Example 427, (R)-1-((4-chloro-5-fluoro-2-(2-methoxy-7-methylquinoxalin-5-yl)benzo[d]thiazol-6-yl)oxy)propan-2-yl (2-carbamoylpyridin-4-yl)carbamate] |
| 8.66 | COc1cnc2c(-c3nc4cc(F)c(O[C@@H](C)[C@@H](C)OC(=O)Nc5ccc(CO)nc5)cc4s3)cc(Cl)cc2n1 [Example 831, (2R,3S)-3-((2-(7-chloro-2-methoxyquinoxalin-5-yl)-5-fluorobenzo[d]thiazol-6-yl)oxy)butan-2-yl (6-(hydroxymethyl)pyridin-3-yl)carbamate] |
| 8.96 | COc1cnc2c(-c3nc4c(C)cc(OCCOC(=O)Nc5cccnc5)cc4s3)cc(C)cc2n1 [Example 111, 2-(2-(2-methoxy-7-methylquinoxalin-5-yl)-4-methylbenzo[d]thiazol-6-yloxy)ethyl pyridin-3-ylcarbamate] |
| 9.52 | COc1cnc2c(-c3nc4cc(F)c(O[C@@H](C)[C@@H](C)OC(=O)Nc5cncnc5)cc4s3)cc(C)cc2n1 [Example 410, (2R,3S)-3-((5-fluoro-2-(2-methoxy-7-methylquinoxalin-5-yl)benzo[d]thiazol-6-yl)oxy)butan-2-yl pyrimidin-5-ylcarbamate] |
| 9.22 | COCc1cnc2c(-c3nc4c(C(O)C(F)(F)F)cc(OC)cc4s3)cc(C)cc2n1 (stereo not shown) [Example 171, 2,2,2-trifluoro-1-(6-methoxy-2-(2-(methoxymethyl)-7-methylquinoxalin-5-yl)benzo[d]thiazol-4-yl)ethanol] |
| 8.70 | CCOc1cnc2c(-c3nc4cc(F)c(O[C@@H](C)[C@@H](C)OC(=O)Nc5ccc(CCO)nc5)cc4s3)cc(C)cc2n1 [Example 526, (2R,3S)-3-((2-(2-ethoxy-7-methylquinoxalin-5-yl)-5-fluorobenzo[d]thiazol-6-yl)oxy)butan-2-yl (6-(2-hydroxyethyl)pyridin-3-yl)carbamate] |
| 7.74 | COc1cnc2c(-c3nc4c(Cl)c(F)c(OCCOC(=O)Nc5cncs5)cc4s3)cc(C)cc2n1 [Example 384, 2-((4-chloro-5-fluoro-2-(2-methoxy-7-methylquinoxalin-5-yl)benzo[d]thiazol-6-yl)oxy)ethyl thiazol-5-ylcarbamate] |
| 8.03 | Cc1cc(-c2nc3cccc(OCCO)c3s2)c2ncc(OC(F)F)nc2c1 [Example 74, 2-(2-(2-(difluoromethoxy)-7-methylquinoxalin-5-yl)benzo[d]thiazol-7-yloxy)ethanol] |
| 8.42 | COc1cc(C(C)O)c2nc(-c3cc(C)cc4nc(OC)cnc34)sc2c1 (stereo not shown) [Example 677, 1-(6-methoxy-2-(2-methoxy-7-methylquinoxalin-5-yl)benzo[d]thiazol-4-yl)ethan-1-ol] |
